Test results from patent US8629137B2, “CGRP antagonists” (Boehringer Ingelheim International GmbH, priority 2007, dated 2014).

Molecular target: T1, human CGRP receptor (Homo sapiens, UniProt O60894+Q16602)
T1 construct: SK-N-MC cells are cultivated in “Dulbecco's modified Eagle medium”; endogenous in cells; host or cells: SK-N-MC cells (membrane homogenate)
Experiment: Binding studies with SK-N-MC cells (expressing the human CGRP receptor)
Settings: SK-N-MC cell membranes, displacement of 125I-iodotyrosyl-CGRP
Experimental: A. Binding Studies with SK-N-MC Cells (Expressing the Human CGRP Receptor)
SK-N-MC cells are cultivated in “Dulbecco's modified Eagle medium”. The medium is removed from confluent cultures. The cells are washed twice with PBS buffer (Gibco 041-04190 M), detached by the addition of PBS buffer mixed with 0.02% EDTA, and isolated by centrifuging. After resuspension in 20 ml of “Balanced Salts Solution” [BSS (in mM): NaCl 120, KCl 5.4, NaHCO3 16.2, MgSO4 0.8, NaHPO4 1.0, CaCl2 1.8, D-glucose 5.5, HEPES 30, pH 7.40] the cells are centrifuged twice at 100×g and resuspended in BSS. After the number of cells has been determined, the cells are homogenised using an Ultra-Turrax and centrifuged for 10 minutes at 3000×g. The supernatant is discarded and the pellet is recentrifuged in Tris buffer (10 mM Tris, 50 mM NaCl, 5 mM MgCl2, 1 mM EDTA, pH 7.40) enriched with 1% bovine serum albumin and 0.1% bacitracin, and resuspended (1 ml/1000000 cells). The homogenised product is frozen at −80° C. The membrane preparations are stable for more than 6 weeks under these conditions.
After thawing, the homogenised product is diluted 1:10 with assay buffer (50 mM Tris, 150 mM NaCl, 5 mM MgCl2, 1 mM EDTA, pH 7.40) and homogenised for 30 seconds with an Ultra-Turrax. 230 μl of the homogenised product are incubated for 180 minutes at ambient temperature with 50 pM ^125I-iodotyrosyl-Calcitonin-Gene-Related Peptide (Amersham) and increasing concentrations of the test substances in a total volume of 250 μl. The incubation is ended by rapid filtration through GF/B glass fibre filters treated with polyethyleneimine (0.1%) using a cell harvester. The protein-bound radioactivity is measured using a gamma counter. Non-specific binding is defined as the bound radioactivity after the presence of 1 μM human CGRP-alpha during incubation.
The concentration binding curves are analysed using computer-aided non-linear curve fitting.

T1 sequence (Q16602 23-461): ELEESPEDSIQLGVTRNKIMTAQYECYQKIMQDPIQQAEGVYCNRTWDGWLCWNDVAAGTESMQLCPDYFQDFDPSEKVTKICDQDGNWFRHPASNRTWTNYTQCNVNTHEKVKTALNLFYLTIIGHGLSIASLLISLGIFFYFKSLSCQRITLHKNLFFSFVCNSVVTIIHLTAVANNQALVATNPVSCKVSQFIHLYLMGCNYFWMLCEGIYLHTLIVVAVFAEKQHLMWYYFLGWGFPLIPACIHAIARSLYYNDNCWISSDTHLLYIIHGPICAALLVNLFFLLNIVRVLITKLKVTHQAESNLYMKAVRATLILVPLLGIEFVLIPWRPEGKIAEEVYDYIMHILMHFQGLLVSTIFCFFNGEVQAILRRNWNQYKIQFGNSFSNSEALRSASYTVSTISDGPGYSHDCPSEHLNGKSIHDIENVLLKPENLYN
T1 sequence (O60894 27-148): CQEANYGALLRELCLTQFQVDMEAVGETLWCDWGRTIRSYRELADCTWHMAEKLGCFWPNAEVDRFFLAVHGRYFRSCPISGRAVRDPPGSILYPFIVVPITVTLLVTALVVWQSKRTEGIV

Structure (SMILES) | Ki
Cc1cc(C(=O)c2cc(N3CCC(n4c(=O)[nH]c5ncccc54)CC3)ncn2)cc2oc(=O)[nH]c12 [(1)] | 0.4 nM
Cc1cc(C(=O)c2cc(N3CCC(n4nc(-c5ccccc5)[nH]c4=O)CC3)ncn2)cc2oc(=O)[nH]c12 [(3)] | 4 nM
Cc1cc(C(=O)c2cc(N3CCC(n4c(=O)[nH]c5c6ccccc6ncc54)CC3)ncn2)cc2oc(=O)[nH]c12 [(4)] | 1 nM
